From US9163021B2, “Pyrrolo[3,2-c]pyridine tropomyosin-related kinase inhibitors” (Pfizer Limited, priority 2012, dated 2015)

Target: TRKA (Homo sapiens (Human), UniProt P04629)
Assay: Isolated TRK enzyme assay (HTRF KinEASE-TK), PV3144 TrkA enzyme assay
Assay type: biochemical
Conditions: arithmetic mean where more than one reading
How it was run: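 His-tagged TrkA cytoplasmic domain preactivated with ATP 20 min, then with compound 20 min at room temperature before 1 µM final biotin-TK substrate; HTRF 665/620 nm read.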

Chain of TRKA (P04629 441-796): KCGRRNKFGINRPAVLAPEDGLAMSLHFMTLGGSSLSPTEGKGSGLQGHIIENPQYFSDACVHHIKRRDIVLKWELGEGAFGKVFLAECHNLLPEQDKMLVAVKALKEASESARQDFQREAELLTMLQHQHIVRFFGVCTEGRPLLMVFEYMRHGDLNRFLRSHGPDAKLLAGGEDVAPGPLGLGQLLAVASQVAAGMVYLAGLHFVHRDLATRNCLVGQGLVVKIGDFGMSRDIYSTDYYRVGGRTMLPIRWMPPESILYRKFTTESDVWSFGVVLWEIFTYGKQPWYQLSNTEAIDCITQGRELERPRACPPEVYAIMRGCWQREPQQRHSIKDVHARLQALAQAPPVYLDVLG

| SMILES | IC50 |
| --- | --- |
| CC(C)n1cc(C(=O)c2cncc(NC(=O)Cc3ccccc3)c2)c2cnccc21 [Example 130, 2-phenyl-N-(5-{[1-(propan-2-yl)-1H-pyrrolo[3,2-c]pyridin-3-yl]carbonyl}pyridin-3-yl)acetamide] | 161 nM |
| Cc1cc(C)n(CC(=O)Nc2cncc(C(=O)c3cn(C(C)C)c4ccncc34)c2)n1 [Example 131, 2-(3,5-dimethyl-1H-pyrazol-1-yl)-N-(5-{[1-(propan-2-yl)-1H-pyrrolo[3,2-c]pyridin-3-yl]carbonyl}pyridin-3-yl)acetamide] | 92.8 nM |
| Cc1cn(CC(=O)Nc2cncc(C(=O)c3cn(C(C)C)c4ccncc34)c2)nn1 [Example 132, 2-(4-methyl-1H-1,2,3-triazol-1-yl)-N-(5-{[1-(propan-2-yl)-1H-pyrrolo[3,2-c]pyridin-3-yl]carbonyl}pyridin-3-yl)acetamide] | 505 nM |
| CC(C)n1cc(C(=O)c2cncc(NC(=O)Cc3cnccn3)c2)c2cnccc21 [Example 133, N-(5-{[1-(propan-2-yl)-1H-pyrrolo[3,2-c]pyridin-3-yl]carbonyl}pyridin-3-yl)-2-(pyrazin-2-yl)acetamide] | 4340 nM |
| Cc1ccn(CC(=O)Nc2cncc(C(=O)c3cn(C(C)C)c4ccncc34)c2)n1 [Example 134, 2-(3-methyl-1H-pyrazol-1-yl)-N-(5-{[1-(propan-2-yl)-1H-pyrrolo[3,2-c]pyridin-3-yl]carbonyl}pyridin-3-yl)acetamide] | 284 nM |
| Cc1ccnn1CC(=O)Nc1cncc(C(=O)c2cn(C(C)C)c3ccncc23)c1 [Example 135, 2-(5-methyl-1H-pyrazol-1-yl)-N-(5-{[1-(propan-2-yl)-1H-pyrrolo[3,2-c]pyridin-3-yl]carbonyl}pyridin-3-yl)acetamide] | 2600 nM |
| Cc1cc(CC(=O)Nc2cncc(C(=O)c3cn(C(C)C)c4ccncc34)c2)[nH]n1 [Example 136, 2(3-methyl-1H-pyrazol-5-yl)-N-(5-{[1-(propan-2-yl)-1H-pyrrolo[3,2-c]pyridin-3-yl]carbonyl}pyridin-3-yl)acetamide] | 268 nM |
| Cc1nc(C)n(CC(=O)Nc2cncc(C(=O)c3cn(C(C)C)c4ccncc34)c2)n1 [Example 137, 2-(3,5-dimethyl-1H-1,2,4-triazol-1-yl)-N-(5-{[1-(propan-2-yl)-1H-pyrrolo[3,2-c]pyridin-3-yl]carbonyl}pyridin-3-yl)acetamide] | 9800 nM |
| CC(C)n1cc(C(=O)c2ccnc(NC(=O)Cc3ccc(C#N)cn3)c2)c2cnccc21 [Example 138, 2(5-cyanopyridin-2-yl)-N-(4-{[1-(propan-2-yl)-1H-pyrrolo[3,2-c]pyridin-3-yl]carbonyl}pyridin-2-yl)acetamide] | 45.3 nM |
| CC(C)n1cc(C(=O)c2cncc(NC(=O)Cc3ccc(C#N)cn3)c2)c2cnccc21 [Example 139, 2-(5-cyanopyridin-2-yl)-N-(5-{[1-(propan-2-yl)-1H-pyrrolo[3,2-c]pyridin-3-yl]carbonyl}pyridin-3-yl)acetamide] | 100 nM |
| CC(C)n1cc(C(=O)c2cc(NC(=O)Cc3ccc(C#N)cn3)ccn2)c2cnccc21 [Example 140, 2-(5-cyanopyridin-2-yl)-N-(2-{[1-(propan-2-yl)-1H-pyrrolo[3,2-c]pyridin-3-yl]carbonyl}pyridin-4-yl)acetamide] | 207 nM |
| O=C(Cc1ccc(C(F)(F)F)cc1)Nc1cc(C(=O)c2cn(CCO)c3ccncc23)ccn1 [Example 141, N-(4-{[1-(2-hydroxyethyl)-1H-pyrrolo[3,2-c]pyridin-3-yl]carbonyl}pyridin-2-yl)-2-[4-(trifluoromethyl)phenyl]acetamide] | 20.2 nM |
| O=C(Nc1cc(C(=O)c2cn(CCO)c3ccncc23)ccn1)c1cccc(OC(F)(F)F)c1 [Example 142, N-(4-{[1-(2-hydroxyethyl)-1H-pyrrolo[3,2-c]pyridin-3-yl]carbonyl}pyridin-2-yl)-3-(trifluoromethoxy)benzamide] | 29.9 nM |
